In paper PMC5218480 (PLoS ONE, 2017):

Test system: MV-4-11 cells
Assay: Gene expression microarray analysis (Affymetrix PrimeView) and GSEA
Type: cell-based, human
Parameters: RFU PODN (11730768_x_at) / Fold change /veh PODN (11730768_x_at) / RFU LINC00158 (11744669_a_at) / Fold change /veh LINC00158 (11744669_a_at) / RFU DUSP10 (11751237_a_at) / Fold change /veh DUSP10 (11751237_a_at) / RFU ID3 (11757404_x_at) / Fold change /veh ID3 (11757404_x_at) / RFU PLEKHG5 (11737974_s_at) / Fold change /veh PLEKHG5 (11737974_s_at) / RFU LRRC4B (11730491_at) / Fold change /veh LRRC4B (11730491_at) / RFU GIMAP4 (11747438_a_at) / Fold change /veh GIMAP4 (11747438_a_at) / RFU KRT8 (11758183_x_at) / Fold change /veh KRT8 (11758183_x_at) / RFU CNN1 (11734310_a_at) / Fold change /veh CNN1 (11734310_a_at) / RFU VPS37D (11726825_at) / Fold change /veh VPS37D (11726825_at) / RFU C10orf10 (11716522_x_at) / Fold change /veh C10orf10 (11716522_x_at) / RFU KIR2DL2 /// KIR2DL4 /// KIR2DL5A /// KIR2DL5B /// KIR2DS1 /// KIR2DS2 /// KIR2DS3 /// KIR2DS4 /// KIR3DL3 /// KIR3DL3 /// KIR3DS1 (11738374_at) / Fold change /veh KIR2DL2 /// KIR2DL4 /// KIR2DL5A /// KIR2DL5B /// KIR2DS1 /// KIR2DS2 /// KIR2DS3 /// KIR2DS4 /// KIR3DL3 /// KIR3DL3 /// KIR3DS1 (11738374_at) / RFU C1QL1 (11718748_at) / Fold change /veh C1QL1 (11718748_at) / RFU TMPRSS4 (11747572_a_at) / Fold change /veh TMPRSS4 (11747572_a_at) / RFU HAMP (11756126_x_at) / Fold change /veh HAMP (11756126_x_at) / RFU RNFT2 (11725882_a_at) / Fold change /veh RNFT2 (11725882_a_at) / RFU NR4A2 (11747474_a_at) / Fold change /veh NR4A2 (11747474_a_at) / RFU ABCC12 (11746883_a_at) / Fold change /veh ABCC12 (11746883_a_at) / RFU TMEM136 (11760407_x_at) / Fold change /veh TMEM136 (11760407_x_at) / RFU CLDN22 /// WWC2 (11732394_at) / Fold change /veh CLDN22 /// WWC2 (11732394_at) / RFU HLA-DPB1 (11760878_x_at) / Fold change /veh HLA-DPB1 (11760878_x_at) / RFU SPINT1 (11716480_a_at) / Fold change /veh SPINT1 (11716480_a_at) / RFU GAP43 (11754022_s_at) / Fold change /veh GAP43 (11754022_s_at) / RFU A4GNT (11735810_at) / Fold change /veh A4GNT (11735810_at) / RFU PRB3 (11715151_x_at) / Fold change /veh PRB3 (11715151_x_at) / RFU TUBB4B (11761932_at) / Fold change /veh TUBB4B (11761932_at) / RFU CAPN14 (11732068_a_at) / Fold change /veh CAPN14 (11732068_a_at) / RFU TMCC2 (11721928_a_at) / Fold change /veh TMCC2 (11721928_a_at) / RFU IRGQ (11745062_a_at) / Fold change /veh IRGQ (11745062_a_at) / RFU FAM174B (11720279_a_at) / Fold change /veh FAM174B (11720279_a_at) / RFU TMPRSS4 (11748680_a_at) / Fold change /veh TMPRSS4 (11748680_a_at) / RFU FAM212B (11763350_a_at) / Fold change /veh FAM212B (11763350_a_at) / RFU PLEKHG5 (11743358_a_at) / Fold change /veh PLEKHG5 (11743358_a_at) / RFU ZSCAN30 (11745921_a_at) / Fold change /veh ZSCAN30 (11745921_a_at) / RFU CMKLR1 (11741424_a_at) / Fold change /veh CMKLR1 (11741424_a_at) / RFU LOC101060620 /// MAPK8IP1 (11723275_at) / Fold change /veh LOC101060620 /// MAPK8IP1 (11723275_at) / RFU SPTSSB (11747773_x_at) / Fold change /veh SPTSSB (11747773_x_at) / RFU PRSS12 (11739890_at) / Fold change /veh PRSS12 (11739890_at) / RFU BIN1 (11741810_x_at) / Fold change /veh BIN1 (11741810_x_at) / RFU WNT11 (11732464_a_at) / Fold change /veh WNT11 (11732464_a_at) / RFU C10orf10 (11716521_a_at) / Fold change /veh C10orf10 (11716521_a_at) / RFU C5orf56 (11738089_at) / Fold change /veh C5orf56 (11738089_at) / RFU CYB561 (11721691_x_at) / Fold change /veh CYB561 (11721691_x_at) / RFU ANKRD19P (11752326_a_at) / Fold change /veh ANKRD19P (11752326_a_at) / RFU OR2T12 /// OR2T33 /// OR2T8 (11738714_s_at) / Fold change /veh OR2T12 /// OR2T33 /// OR2T8 (11738714_s_at) / RFU VCAN (11748164_a_at) / Fold change /veh VCAN (11748164_a_at) / RFU JSRP1 (11732532_at) / Fold change /veh JSRP1 (11732532_at) / RFU KRTAP10-11 (11738290_x_at) / Fold change /veh KRTAP10-11 (11738290_x_at) / RFU MYO3A (11730013_a_at) / Fold change /veh MYO3A (11730013_a_at) / RFU EBF3 (11725865_a_at) / Fold change /veh EBF3 (11725865_a_at) / RFU CAMK2N1 (11719241_x_at) / Fold change /veh CAMK2N1 (11719241_x_at) / RFU C5orf56 (11738088_a_at) / Fold change /veh C5orf56 (11738088_a_at) / RFU OLFML3 (11715873_a_at) / Fold change /veh OLFML3 (11715873_a_at) / RFU LOC100653217 /// NTM (11731650_a_at) / Fold change /veh LOC100653217 /// NTM (11731650_a_at) / RFU MAPK11 (11762145_a_at) / Fold change /veh MAPK11 (11762145_a_at) / RFU FIZ1 (11724087_x_at) / Fold change /veh FIZ1 (11724087_x_at) / RFU OASL (11726364_x_at) / Fold change /veh OASL (11726364_x_at) / RFU SOX15 (11748057_x_at) / Fold change /veh SOX15 (11748057_x_at) / RFU CD79A (11719716_a_at) / Fold change /veh CD79A (11719716_a_at) / RFU HIST1H1D (11736915_at) / Fold change /veh HIST1H1D (11736915_at) / RFU CASKIN2 (11723855_a_at) / Fold change /veh CASKIN2 (11723855_a_at) / RFU LOC730098 (11760151_x_at) / Fold change /veh LOC730098 (11760151_x_at) / RFU OR4N2 (11742367_at) / Fold change /veh OR4N2 (11742367_at) / RFU PRRT2 (11749266_a_at) / Fold change /veh PRRT2 (11749266_a_at) / RFU SNX32 (11753110_a_at) / Fold change /veh SNX32 (11753110_a_at) / RFU CDHR5 (11726645_a_at) / Fold change /veh CDHR5 (11726645_a_at) / RFU RCAN1 (11760418_a_at) / Fold change /veh RCAN1 (11760418_a_at) / RFU FAM167A (11723789_a_at) / Fold change /veh FAM167A (11723789_a_at) / RFU FAM26E (11764081_at) / Fold change /veh FAM26E (11764081_at) / RFU ISYNA1 (11749810_s_at) / Fold change /veh ISYNA1 (11749810_s_at) / RFU ACY1 (11761880_at) / Fold change /veh ACY1 (11761880_at) / RFU 11764098_at / Fold change /veh 11764098_at / RFU SAMD14 (11745864_x_at) / Fold change /veh SAMD14 (11745864_x_at) / RFU NPB (11741838_a_at) / Fold change /veh NPB (11741838_a_at) / RFU TMPRSS6 (11731388_a_at) / Fold change /veh TMPRSS6 (11731388_a_at) / RFU KRTAP10-2 (11738614_at) / Fold change /veh KRTAP10-2 (11738614_at) / RFU ARHGAP8 /// PRR5-ARHGAP8 (11727945_x_at) / Fold change /veh ARHGAP8 /// PRR5-ARHGAP8 (11727945_x_at) / RFU KRTAP5-7 /// NADSYN1 (11734609_at) / Fold change /veh KRTAP5-7 /// NADSYN1 (11734609_at) / RFU RASL12 (11751679_a_at) / Fold change /veh RASL12 (11751679_a_at) / RFU CDKN2B (11736163_a_at) / Fold change /veh CDKN2B (11736163_a_at) / RFU PRF1 (11729649_at) / Fold change /veh PRF1 (11729649_at) / RFU, ZNF638 /// ZNF638-IT1 / Fold change vs veh, ZNF638 /// ZNF638-IT1 / RFU, PANK3 / Fold change vs veh, PANK3 / RFU, SH3YL1 / Fold change vs veh, SH3YL1 / RFU, ZEB2 / Fold change vs veh, ZEB2 / RFU, NRIP1 / Fold change vs veh, NRIP1 / RFU, PTTG1IP / Fold change vs veh, PTTG1IP / RFU, CAPN2 / Fold change vs veh, CAPN2 / RFU, MED14 / Fold change vs veh, MED14 / RFU, SNORA58 / Fold change vs veh, SNORA58 / RFU, C1orf63 / Fold change vs veh, C1orf63 / RFU, LRRFIP1 / Fold change vs veh, LRRFIP1 / RFU, NDUFAF7 / Fold change vs veh, NDUFAF7 / RFU, SLC12A2 / Fold change vs veh, SLC12A2 / RFU, IBTK / Fold change vs veh, IBTK / RFU, ESF1 / Fold change vs veh, ESF1 / Fold change vs veh, TMEM50B / RFU, TAOK1 / Fold change vs veh, TAOK1 / RFU, ACBD3 / Fold change vs veh, ACBD3 / RFU, TMA16 / Fold change vs veh, TMA16 / RFU, RWDD3 / Fold change vs veh, RWDD3 / RFU, BCAT1 / Fold change vs veh, BCAT1 / RFU, EDEM3 / Fold change vs veh, EDEM3 / RFU, TMEM33 / Fold change vs veh, TMEM33 / RFU, WDR75 / Fold change vs veh, WDR75 / RFU, AHCTF1 / Fold change vs veh, AHCTF1 / RFU, TFRC / Fold change vs veh, TFRC / RFU, ZDHHC17 / Fold change vs veh, ZDHHC17 / RFU, NOM1 / Fold change vs veh, NOM1 / RFU, ARL8B / Fold change vs veh, ARL8B / RFU, ZBTB11 / Fold change vs veh, ZBTB11 / RFU, TAMM41 / Fold change vs veh, TAMM41 / RFU, KIAA1704 /// LOC100996395 / Fold change vs veh, KIAA1704 /// LOC100996395 / RFU, ING1 / Fold change vs veh, ING1 / RFU, TRMT61B / Fold change vs veh, TRMT61B / RFU, FUBP3 / Fold change vs veh, FUBP3 / RFU, TP53 / Fold change vs veh, TP53 / RFU, TNKS2 / Fold change vs veh, TNKS2 / RFU, ZFP14 / Fold change vs veh, ZFP14 / RFU, ACTR2 / Fold change vs veh, ACTR2 / RFU, PPP3R1 / Fold change vs veh, PPP3R1 / RFU, PIK3R1 / Fold change vs veh, PIK3R1 / RFU, HNRNPA1 / Fold change vs veh, HNRNPA1 / RFU, RNF170 / Fold change vs veh, RNF170 / RFU, ZNF28 / Fold change vs veh, ZNF28 / RFU, RNGTT / Fold change vs veh, RNGTT / RFU, OGT / Fold change vs veh, OGT / RFU, BRD1 / Fold change vs veh, BRD1 / RFU, MARS / Fold change vs veh, MARS / RFU, ZNF655 / Fold change vs veh, ZNF655 / RFU, FAHD1 / Fold change vs veh, FAHD1 / RFU, BDP1 / Fold change vs veh, BDP1 / RFU, LRRCC1 / Fold change vs veh, LRRCC1 / RFU, ARID1A / Fold change vs veh, ARID1A / RFU, ZNF146 / Fold change vs veh, ZNF146 / RFU, ZNF330 / Fold change vs veh, ZNF330 / RFU, GPN3 / Fold change vs veh, GPN3 / RFU, C9orf123 / Fold change vs veh, C9orf123 / RFU, N4BP2L2 / Fold change vs veh, N4BP2L2 / RFU, ARFIP1 / Fold change vs veh, ARFIP1 / RFU, FAM179B / Fold change vs veh, FAM179B / RFU, BCL10 / Fold change vs veh, BCL10 / RFU, UHRF1BP1L / Fold change vs veh, UHRF1BP1L / RFU, BET1 / Fold change vs veh, BET1 / RFU, CNOT2 / Fold change vs veh, CNOT2 / RFU, ZNF268 / Fold change vs veh, ZNF268 / Fold change vs veh, ZNF507 / RFU, DGCR2 / Fold change vs veh, DGCR2 / RFU, WDSUB1 / Fold change vs veh, WDSUB1 / Fold change vs veh, HSP90B1 /// MIR3652 / RFU, ADSS / Fold change vs veh, ADSS / RFU, GK / Fold change vs veh, GK / RFU, ZNF148 / Fold change vs veh, ZNF148 / RFU, TAF9 / Fold change vs veh, TAF9 / RFU, SLC1A5 / Fold change vs veh, SLC1A5 / RFU, SLMO2 / Fold change vs veh, SLMO2 / RFU, ABCC4 / Fold change vs veh, ABCC4 / RFU, LOC101060439 /// RAP1B / Fold change vs veh, LOC101060439 /// RAP1B / RFU, RFX7 / Fold change vs veh, RFX7 / RFU, GTPBP10 / Fold change vs veh, GTPBP10 / RFU, CNEP1R1 / Fold change vs veh, CNEP1R1 / RFU, BIVM-ERCC5 /// ERCC5 / Fold change vs veh, BIVM-ERCC5 /// ERCC5 / RFU, ILF3 / Fold change vs veh, ILF3 / RFU 11762660_at / Fold change /veh 11762660_at / RFU VCAN (11757783_s_at) / Fold change /veh VCAN (11757783_s_at) / RFU DDX43 (11728927_at) / Fold change /veh DDX43 (11728927_at) / RFU KRT8 (11758188_x_at) / Fold change /veh KRT8 (11758188_x_at) / RFU NKD1 (11759106_at) / Fold change /veh NKD1 (11759106_at) / RFU SRD5A1 (11742802_a_at) / Fold change /veh SRD5A1 (11742802_a_at) / RFU TPSAB1 /// TPSB2 (11721975_s_at) / Fold change /veh TPSAB1 /// TPSB2 (11721975_s_at) / RFU GSTM3 (11746129_a_at) / Fold change /veh GSTM3 (11746129_a_at) / RFU IL23R (11737362_x_at) / Fold change /veh IL23R (11737362_x_at) / RFU TMEM51 (11727254_a_at) / Fold change /veh TMEM51 (11727254_a_at) / RFU PIWIL2 (11732686_x_at) / Fold change /veh PIWIL2 (11732686_x_at) / RFU ORM1 (11744905_x_at) / Fold change /veh ORM1 (11744905_x_at) / RFU CCDC152 (11743942_at) / Fold change /veh CCDC152 (11743942_at) / RFU ECM1 (11717891_a_at) / Fold change /veh ECM1 (11717891_a_at) / RFU IL23R (11748794_a_at) / Fold change /veh IL23R (11748794_a_at) / RFU TNFAIP8L3 (11732012_x_at) / Fold change /veh TNFAIP8L3 (11732012_x_at) / RFU MBOAT4 (11741988_at) / Fold change /veh MBOAT4 (11741988_at) / RFU 11764193_at / Fold change /veh 11764193_at / RFU TMEM53 (11763286_at) / Fold change /veh TMEM53 (11763286_at) / RFU MAGEB2 (11727129_at) / Fold change /veh MAGEB2 (11727129_at) / RFU TMEM200A (11744735_a_at) / Fold change /veh TMEM200A (11744735_a_at) / RFU CCDC152 (11751479_a_at) / Fold change /veh CCDC152 (11751479_a_at) / RFU FAM211A (11726209_a_at) / Fold change /veh FAM211A (11726209_a_at) / RFU RGS16 (11746705_a_at) / Fold change /veh RGS16 (11746705_a_at) / RFU VCAN (11755009_s_at) / Fold change /veh VCAN (11755009_s_at) / RFU RHOB (11743442_s_at) / Fold change /veh RHOB (11743442_s_at) / RFU RGS16 (11720943_a_at) / Fold change /veh RGS16 (11720943_a_at) / RFU RGS16 (11720944_at) / Fold change /veh RGS16 (11720944_at) / RFU, VPS4B / Fold change vs veh, VPS4B / RFU, CREB1 / Fold change vs veh, CREB1 / RFU, DNAJC13 / Fold change vs veh, DNAJC13 / RFU, GNAQ / Fold change vs veh, GNAQ / RFU, CDK5R1 / Fold change vs veh, CDK5R1 / RFU, ZRANB3 / Fold change vs veh, ZRANB3 / RFU, CUL4A / Fold change vs veh, CUL4A / RFU, CCNY / Fold change vs veh, CCNY / RFU, UFL1 / Fold change vs veh, UFL1 / RFU, COG3 / Fold change vs veh, COG3 / RFU, DIAPH2 / Fold change vs veh, DIAPH2 / RFU, SKA2 / Fold change vs veh, SKA2 / RFU, AFF3 / Fold change vs veh, AFF3 / RFU, LMF1 / Fold change vs veh, LMF1 / RFU, IPO11 / Fold change vs veh, IPO11 / RFU, DFFB / Fold change vs veh, DFFB / RFU, FOXP1 / Fold change vs veh, FOXP1 / RFU, CARD8 / Fold change vs veh, CARD8 / RFU, STRN3 / Fold change vs veh, STRN3 / RFU, ADK / Fold change vs veh, ADK / RFU, RASSF2 / Fold change vs veh, RASSF2 / RFU, WIPF1 / Fold change vs veh, WIPF1 / RFU, LARP1B / Fold change vs veh, LARP1B / RFU, RASA1 / Fold change vs veh, RASA1 / RFU, RB1 / Fold change vs veh, RB1 / RFU, PPFIA1 / Fold change vs veh, PPFIA1 / RFU, MAT2A / Fold change vs veh, MAT2A / RFU, CCT5 / Fold change vs veh, CCT5 / RFU, WDR92 / Fold change vs veh, WDR92 / RFU, CUX1 / Fold change vs veh, CUX1 / RFU, TTC7A / Fold change vs veh, TTC7A / RFU, TMEM135 / Fold change vs veh, TMEM135 / RFU, DEPTOR / Fold change vs veh, DEPTOR / RFU, CPM / Fold change vs veh, CPM / RFU, DNAJB6 / Fold change vs veh, DNAJB6 / RFU, CACNA2D3 / Fold change vs veh, CACNA2D3 / RFU, DTX4 / Fold change vs veh, DTX4 / RFU, TFCP2 / Fold change vs veh, TFCP2 / RFU, GMCL1 /// GMCL1P1 / Fold change vs veh, GMCL1 /// GMCL1P1 / RFU, AEBP2 / Fold change vs veh, AEBP2 / RFU, SNHG1 /// SNORD22 /// SNORD25 /// SNORD26 /// SNORD27 /// SNORD28 /// SNORD29 /// SNORD31 / Fold change vs veh, SNHG1 /// SNORD22 /// SNORD25 /// SNORD26 /// SNORD27 /// SNORD28 /// SNORD29 /// SNORD31 / Fold change (Aza/veh), C12orf56 (ProbeSet 11735607_a_at) / Fold change (ACY-1035/veh), C12orf56 (ProbeSet 11735607_a_at) / Fold change (Aza/veh), FGFR1OP (ProbeSet 11751329_s_at) / Fold change (ACY-1035/veh), FGFR1OP (ProbeSet 11751329_s_at) / Fold change (Aza/veh), VPS36 (ProbeSet 11739960_a_at) / Fold change (ACY-1035/veh), VPS36 (ProbeSet 11739960_a_at) / RFU SYPL1 (11715823_x_at) / Fold change /veh SYPL1 (11715823_x_at) / RFU IGFBP7 (11715501_s_at) / Fold change /veh IGFBP7 (11715501_s_at) / RFU REEP3 (11722064_at) / Fold change /veh REEP3 (11722064_at) / RFU IGLL1 (11728026_x_at) / Fold change /veh IGLL1 (11728026_x_at): dose or concentration left out as unconfirmed
Details: MV-4-11 cells, 48 hours

With `Nc1ncn([C@@H]2O[C@H](CO)[C@@H](O)[C@H]2O)c(=O)n1` [azacitidine] the “RFU HIST1H1D (11736915_at)” value was 16.89 RFU.
